Test [1] concerns IL-2 secretion from activated Jurkat cells. The test is described as follows: Inhibition of IL-2 in PMA/A23187 activated T cells (ELISA). Type of test: cell-based, human. The conditions noted are these: for reversal of IL-2 secretion inhibiting activity by antagonists: 0.5-5 μM of CB1 antagonist SR141716A or CB2 antagonist SR144528; for IC50: 24 hours after stimulation, read-out: calculated IC50 IL-2 secretion. As for the experimental part:
The technique used to quantify the amount of a given protein in a liquid sample, either tissue culture supernatant or body fluid, is based on Enzyme Linked ImmunoSorbent Assay (ELISA) methodology. Either commercially available or established in house, the assay is based on the capture of the protein of interest by specific antibodies bound to the bottom of an ELISA plate well. […] Again the unbound material is washed away, the samples are then incubated with the appropriate substrate yielding a calorimetric reaction. The reaction is stopped and reading is performed in a spectrophotometer at the appropriate wavelength. Samples are tested at least in duplicate and the appropriate standard curve, consisting of serial dilutions of the recombinant target protein, is incorporated on each plate. Concentration of the protein in the sample is calculated from the standard curve.
Jurkat cells (human acute lymphoma T-cell line; ATCC # TIB-152) are grown in RPMI 1640 medium with 2 mM L-glutamine adjusted to contain 1.5 g/L sodium bicarbonate, 4.5 g/L glucose, 10 mM HEPES, 1.0 mM sodium pyruvate, and 10% heat inactivated fetal bovine serum. Cells are grown in tissue culture flasks and seeded at appropriate density into 24 wells tissue culture plates. 2×10^6 cells in one milliliter are stimulated using 10 ng/ml of PMA (Sigma) and 1 μM A23187 calcium ionophore (Sigma). […] The controls and test compounds are added at indicated concentrations one hour before stimulation. Supernatant is collected 24 hours after stimulation and the levels of the inflammatory agent under study are measured in an ELISA assay as previously described. Inhibition is calculated versus vehicle treated cells.
The activation of the T cells is performed as previously described. The levels of IL-2 are measured in an ELISA assay as previously described. Inhibition is calculated versus vehicle treated cells.

The subject of test [2] is TNF-α secretion from activated RAW 264.7 macrophages. The test is described as follows: Inhibition of TNF-α in LPS activated macrophages (ELISA). Type of test: cell-based, mouse. The conditions noted are these: for effect on TNF-α secretion: doses up to 20 μM. The text has this:
(§1) The technique used to quantify the amount of a given protein in a liquid sample, either tissue culture supernatant or body fluid, is based on Enzyme Linked ImmunoSorbent Assay (ELISA) methodology. Either commercially available or established in house, the assay is based on the capture of the protein of interest by specific antibodies bound to the bottom of an ELISA plate well. Unbound material is washed away, the captured protein is then exposed to a secondary antibody generally labeled with horseradish peroxidase (HRP) or alkaline phosphatase (ALP). Again the unbound material is washed away, the samples are then incubated with the appropriate substrate yielding a calorimetric reaction. The reaction is stopped and reading is performed in a spectrophotometer at the appropriate wavelength. Samples are tested at least in duplicate and the appropriate standard curve, consisting of serial dilutions of the recombinant target protein, is incorporated on each plate. Concentration of the protein in the sample is calculated from the standard curve.
(§2) RAW 264.7 macrophages, a mouse cell line (ATCC # TIB-71), were grown in Dulbecco's modified Eagle's medium (DMEM) with 4 mM L-glutamine adjusted to contain 1.5 g/L sodium bicarbonate, 4.5 g/L glucose, and 10% heat inactivated fetal bovine serum. Cells were grown in tissue culture flasks and seeded at appropriate density into 24 wells tissue culture plates. 0.5×10^6 Raw cells in one milliliter were stimulated with 2 μg/ml Lipopolysaccharide E. coli 055:B5 (DIFCO Laboratories). The mouse macrophages were pre-treated for one hour with controls or 10 μM of bicyclic CB2 ligands and later on activated with LPS. Dexamethasone was used as a positive control at 50 nM. Supernatant was collected 4 hours (for PGE2) and 24 hours (for IL-1β and TNF-α) after activation, and the levels of the inflammatory agent under study were determined by ELISA, as previously described. Inhibition was calculated versus vehicle treated cells.
The activation of the macrophages is performed as previously described. The levels of TNF-α are measured in an ELISA assay as previously described. Inhibition is calculated versus vehicle treated cells.

Test [3] deals with PGE2 secretion from activated RAW 264.7 macrophages. Description: Inhibition of PGE2 in LPS activated macrophages (ELISA). The conditions noted are these: 4 hours after activation, doses 1 μM to 20 μM. Type of test: cell-based, mouse.
Excerpt: as §1, §2
The activation of the macrophages is performed as previously described. The levels of PGE2 are measured in an ELISA assay as previously described. Inhibition is calculated versus vehicle treated cells. […] Results are depicted in FIG. 2B.

A further test deals with Male Sprague Dawley rats. The test is described as follows: Inflammatory pain: carrageenan paw edema in rats, thermal and mechanical stimuli. Type of test: in vivo, rat. The settings on record: for ΔForce (tactile stimulus) / ΔLT (thermal stimulus): three hours. Summed up:
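Male Sprague Dawley rats (~200 g) with carrageenan-inflamed paw, tested before and 3 h after injection. Thermal withdrawal latency measured by Hargreaves plantar test at intensity 50, and mechanical threshold by dynamic plantar aesthesiometer. Values are inflamed minus non-inflamed paw differences at 0 and 3 h (ΔLT, ΔForce).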

The target in a further test is human CB2 receptor (Homo sapiens, UniProt P34972). The test is described as follows: Adenylylcyclase assay: forskolin-activated cAMP in CB2 transfected HEK-293 cells. Type of test: cell-based. The conditions noted are these: for inhibition at 1 µM: HEK293, read-out: % inhibition at 1 μM. As for the experimental part: Cannabinoids and derivatives bind to G-protein-coupled CB1 and CB2 receptors and exert their activity via the inhibition of adenylylcyclase activity. An adenylylcyclase assay forms a basis for the functional analysis of the compounds by determining their capacity to inhibit or promote forskolin-activated cAMP production. The assay is carried out according to Chin et al. (Chin, C. N. et al., J. Neurochem. 70: 366-73, 1998). Briefly, HEK-293 human kidney cells (ATCC#CRL-1573) stably transfected with either the human CB1 or CB2 receptor (cDNA) were grown in DMEM supplemented with 10% fetal calf serum, 1% Penicillin-Streptomycin and 2 mM L-glutamine. Cells were seeded in 24 wells plate at 5×10^4 cells/well and incubated for 48 hours. Medium was then removed and the adherent cells were washed with PBS. Two hundred μl of serum free medium supplemented with 0.2 mM Ro 20-1724, 0.25% BSA, and 20 mM HEPES was then added to each well. The cells were then activated with 1 μM forskolin in presence of the bicyclic test compounds in concentrations ranging from 10 pM up to 1 μM. The activated cells were then incubated at 37° C. for 20 minutes and the reaction terminated with 1.2 M HCl to a final concentration of 0.1 M. Cells were lyzed by freeze and thaw and the lysate was neutralized with 2 M HEPES, pH 7.5. cAMP was measured in 50 μl aliquots using the [^3H]-cAMP assay system (Amersham).
human CB2 receptor, sequence (P34972 whole entry): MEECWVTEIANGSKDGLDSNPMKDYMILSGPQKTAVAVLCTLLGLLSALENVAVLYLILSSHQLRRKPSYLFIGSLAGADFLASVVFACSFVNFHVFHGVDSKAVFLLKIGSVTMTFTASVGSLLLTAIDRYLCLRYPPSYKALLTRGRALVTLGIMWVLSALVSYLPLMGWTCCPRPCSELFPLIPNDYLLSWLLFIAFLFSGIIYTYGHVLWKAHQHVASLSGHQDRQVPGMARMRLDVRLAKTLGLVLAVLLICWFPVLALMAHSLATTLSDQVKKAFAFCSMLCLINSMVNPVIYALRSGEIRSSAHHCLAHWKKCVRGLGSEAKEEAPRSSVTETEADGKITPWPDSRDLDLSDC
This experiment was first performed on CB2 receptor transfected cells.

Setting [4] is: CB2 receptor transfected HEK-293, 1 μM forskolin.
Setting [5] is: CB2 receptor transfected HEK-293, 1 μM forskolin, read-out: IC50 inhibition of cAMP level.

Results on five molecules are retold here after US20050020544A1, “Bicyclic CB2 cannabinoid receptor ligands” (priority 2002, published 2005).

Like-named read-outs stand apart in the source and are kept apart here.

Consider `CCCCCCC(C)(C)c1cc(OC)c(C2C=C(CO)C3CC2C3(C)C)c(OC)c1` (single isomer, unassigned; (+)) [HU-308, (+) {4-[4-(1,1-dimethylheptyl)-2,6-dimethoxy-phenyl]-6,6-dimethyl-bicyclo[3.1.1]hept-2-en-2-yl}-methanol, reference compound], for which, in test [1] (doses of up to 10 μM), the “effect on IL-2 secretion” value is “minimal effect”.
Regarding `CCCCCCC(C)(C)c1cc(O)c(C2CC(=O)C3CC2C3(C)C)c(O)c1` (single isomer, unassigned; (-)) [Compound A, (−)-4-[4-(1,1-Dimethyl-heptyl)2,6-dihydroxy-phenyl]-6,6-dimethyl-bicyclo[3.1.1)heptan-2-one], the “reduction of TNF-α secretion” value in test [2] (10 μM) was found to be 53%. Further, the 50% inhibitory concentration (IC50) in test [2] (Mus musculus, RAW264.7) was 10 µM; in test [3] (Mus musculus, RAW264.7) it was 9 µM; in test [1] (Homo sapiens, Jurkat), 3 µM; on human CB2 receptor, 0.00024 µM. Moreover, the “reversal of IL-2 secretion inhibiting activity by antagonists” value in test [1] is “not reversed by any of these antagonists”. Moreover, in the test on Male Sprague Dawley rats (8 mg/kg i.p.), the “ΔForce (tactile stimulus)” value was determined as 2 g. Besides, the “ΔLT (thermal stimulus)” value with Male Sprague Dawley rats (8 mg/kg i.p.) amounted to 1.5 s. For the same molecule, at human CB2 receptor (setting [4]), the inhibition at 1 µM is 63%.
As to `CCCCC(C)(C)c1cc(O)c(C2CC(=O)C3CC2C3(C)C)c(O)c1` (single isomer, unassigned; (-)) [Compound L, (−)-4-[4(1,1-Dimethyl-pentyl)-2,6-dihydroxy-phenyl]-6,6-dimethyl-bicyclo[3.1.1]heptan-2-one], the “effect on TNF-α secretion” value in test [2] is “none of them did significantly affect TNF-α secretion”. For the same molecule, the IC50 in test [3] (Mus musculus, RAW264.7) was 7 µM; in test [1] (Homo sapiens, Jurkat) it was 8 µM. In addition, in test [1], the “reversal of IL-2 secretion inhibiting activity by antagonists” value is “not reversed by any of these antagonists”. In the test on Male Sprague Dawley rats (2 mg/kg i.p.), the “ΔForce (tactile stimulus)” value was determined as 11 g. Moreover, the inhibition at 1 µM at human CB2 receptor (setting [4]) is 33%.
On to `CCCCC(C)(C)c1cc(O)c(C2CC(=O)C3CC2C3(C)C)c(OC(=O)CCC(=O)O)c1` (single isomer, unassigned; (-)) [Compound Y, (−)-4-{4-[1,1-Dimethyl-pentyl]-2-succinate-6-hydroxy-phenyl}-6,6-dimethyl-bicyclo[3.1.1]heptan-2-one], for which the “effect on TNF-α secretion” value in test [2] is on record as “none of them did significantly affect TNF-α secretion”. Further, the IC50 was 7 µM in test [3], 9 µM in test [1] and 0.00113 µM at human CB2 receptor (setting [5]). Further, the “% inhibition at 1 μM” value on human CB2 receptor (setting [4]) was found to be 60%.
`CCCCCCC(C)(C)c1cc(O)c([C@H]2CC(=O)[C@H]3C[C@@H]2C3(C)C)c(OC(=O)CCC(=O)O)c1` [Compound R, (−)-4-{4-[1,1-Dimethyl-heptyl]-2-succinate-6-hydroxy-phenyl}-6,6-dimethyl-bicyclo[3.1.1]heptan-2-one]: the “effect on TNF-α secretion” value in test [2] is given as “none of them did significantly affect TNF-α secretion”. Also, the IC50 in test [3] (Mus musculus, RAW264.7) was 9 µM; in test [1] (Homo sapiens, Jurkat), 9 µM; at human CB2 receptor (setting [5]), 0.00047 µM. Moreover, the “reversal of analgesic activity against thermal and mechanical stimuli by antagonists” value with Male Sprague Dawley rats (5 mg/kg i.p. SR141716A or SR144528, 15 minutes before carrageenan and compound) is reported as “not reversed by any of the antagonists”. Moreover, the “ΔForce (tactile stimulus)” value in the test on Male Sprague Dawley rats (10 mg/kg i.p.) is reported as 4 g. Moreover, in the test on Male Sprague Dawley rats (10 mg/kg i.p.), the “ΔLT (thermal stimulus)” value came out at 0 s. Also, the inhibition at 1 µM on human CB2 receptor (setting [4]) came out at 64%.
